Source: ChEMBL document CHEMBL3991601, “The target landscape of clinical kinase drugs” (Science, 2017)
The source made the active and inactive calls. Rule as the data show it, for most assays here: actives have a measured Kd and inactives only a lower limit.

Tests used:
[1] = target: Epidermal growth factor receptor (Homo sapiens, UniProt P00533)
[2] = target: Serine/threonine-protein kinase N2 (Homo sapiens, UniProt Q16513)
[3] = target: Dual specificity protein kinase CLK1 (Homo sapiens, UniProt P49759)
[4] = target: T1, Serine/threonine-protein kinase STK11 (Homo sapiens, UniProt Q15831)
T1 sequence (Q15831 whole entry): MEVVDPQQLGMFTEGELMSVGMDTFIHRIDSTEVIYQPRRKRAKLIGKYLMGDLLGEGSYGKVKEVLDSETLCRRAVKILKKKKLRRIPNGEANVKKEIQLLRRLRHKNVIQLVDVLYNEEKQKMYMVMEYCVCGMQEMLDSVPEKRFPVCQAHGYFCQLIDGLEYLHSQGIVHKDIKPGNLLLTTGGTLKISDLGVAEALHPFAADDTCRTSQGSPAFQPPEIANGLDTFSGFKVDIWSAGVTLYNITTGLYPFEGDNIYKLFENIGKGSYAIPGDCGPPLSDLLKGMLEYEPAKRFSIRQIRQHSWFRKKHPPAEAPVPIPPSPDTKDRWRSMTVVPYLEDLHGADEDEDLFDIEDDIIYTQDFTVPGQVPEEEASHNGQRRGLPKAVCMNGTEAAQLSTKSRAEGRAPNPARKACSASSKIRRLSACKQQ

[5] = target: Mitogen-activated protein kinase kinase kinase 4 (Homo sapiens, UniProt Q9Y6R4)
[6] = target: Protein kinase C alpha type (Homo sapiens, UniProt P17252)
[7] = target: T2, AarF domain-containing protein kinase 1 (Homo sapiens, UniProt Q86TW2)
T2 sequence (Q86TW2 whole entry): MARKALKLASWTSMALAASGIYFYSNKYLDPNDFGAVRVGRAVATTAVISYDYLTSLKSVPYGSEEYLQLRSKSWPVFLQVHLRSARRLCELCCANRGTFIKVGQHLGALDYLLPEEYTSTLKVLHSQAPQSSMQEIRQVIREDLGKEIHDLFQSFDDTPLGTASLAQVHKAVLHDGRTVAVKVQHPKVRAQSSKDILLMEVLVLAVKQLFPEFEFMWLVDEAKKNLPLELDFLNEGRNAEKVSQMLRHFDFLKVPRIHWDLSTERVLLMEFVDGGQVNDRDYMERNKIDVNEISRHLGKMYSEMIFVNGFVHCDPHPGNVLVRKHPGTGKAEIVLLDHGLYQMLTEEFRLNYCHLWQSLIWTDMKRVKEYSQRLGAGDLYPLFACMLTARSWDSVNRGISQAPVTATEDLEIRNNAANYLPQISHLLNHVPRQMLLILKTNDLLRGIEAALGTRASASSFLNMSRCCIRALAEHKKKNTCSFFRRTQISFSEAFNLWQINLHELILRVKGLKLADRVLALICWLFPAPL

[8] = target: Dual specificity mitogen-activated protein kinase kinase 1 (Homo sapiens, UniProt Q02750)
[9] = target: T3, MAP/microtubule affinity-regulating kinase 4 (Homo sapiens, UniProt Q96L34)
T3 sequence (Q96L34 whole entry): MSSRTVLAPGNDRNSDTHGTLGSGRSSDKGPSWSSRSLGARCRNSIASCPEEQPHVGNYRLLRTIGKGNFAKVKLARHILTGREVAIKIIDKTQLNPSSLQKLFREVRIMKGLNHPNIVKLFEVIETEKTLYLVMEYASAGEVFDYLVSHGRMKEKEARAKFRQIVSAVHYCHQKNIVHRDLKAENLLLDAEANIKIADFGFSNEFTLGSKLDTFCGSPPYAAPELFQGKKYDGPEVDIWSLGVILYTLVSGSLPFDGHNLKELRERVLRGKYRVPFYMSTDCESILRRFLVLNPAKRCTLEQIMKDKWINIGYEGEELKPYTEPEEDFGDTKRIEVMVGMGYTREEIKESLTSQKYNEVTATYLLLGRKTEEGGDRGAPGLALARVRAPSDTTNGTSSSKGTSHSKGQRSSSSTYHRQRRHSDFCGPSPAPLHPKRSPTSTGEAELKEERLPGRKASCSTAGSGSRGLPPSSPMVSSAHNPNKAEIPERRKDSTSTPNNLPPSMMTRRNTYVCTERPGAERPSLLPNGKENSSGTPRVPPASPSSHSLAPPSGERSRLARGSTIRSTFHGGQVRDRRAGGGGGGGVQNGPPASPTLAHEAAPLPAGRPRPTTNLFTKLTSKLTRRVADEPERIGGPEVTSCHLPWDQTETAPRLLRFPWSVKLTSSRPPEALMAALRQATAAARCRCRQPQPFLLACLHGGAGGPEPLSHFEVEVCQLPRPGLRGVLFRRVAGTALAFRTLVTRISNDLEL

[10] = target: Activin receptor type-2B (Homo sapiens, UniProt Q13705)
[11] = target: Cyclin-dependent kinase 2 (Homo sapiens, UniProt P24941)
[12] = target: Receptor-interacting serine/threonine-protein kinase 2 (Homo sapiens, UniProt O43353)
[13] = target: Macrophage-stimulating protein receptor (Homo sapiens, UniProt Q04912)
[14] = target: Dual specificity tyrosine-phosphorylation-regulated kinase 1A (Homo sapiens, UniProt Q13627)
Also: in the data inactive means no Kd found up to 30 µM.

Chain of Receptor-interacting serine/threonine-protein kinase 2 (O43353 whole entry): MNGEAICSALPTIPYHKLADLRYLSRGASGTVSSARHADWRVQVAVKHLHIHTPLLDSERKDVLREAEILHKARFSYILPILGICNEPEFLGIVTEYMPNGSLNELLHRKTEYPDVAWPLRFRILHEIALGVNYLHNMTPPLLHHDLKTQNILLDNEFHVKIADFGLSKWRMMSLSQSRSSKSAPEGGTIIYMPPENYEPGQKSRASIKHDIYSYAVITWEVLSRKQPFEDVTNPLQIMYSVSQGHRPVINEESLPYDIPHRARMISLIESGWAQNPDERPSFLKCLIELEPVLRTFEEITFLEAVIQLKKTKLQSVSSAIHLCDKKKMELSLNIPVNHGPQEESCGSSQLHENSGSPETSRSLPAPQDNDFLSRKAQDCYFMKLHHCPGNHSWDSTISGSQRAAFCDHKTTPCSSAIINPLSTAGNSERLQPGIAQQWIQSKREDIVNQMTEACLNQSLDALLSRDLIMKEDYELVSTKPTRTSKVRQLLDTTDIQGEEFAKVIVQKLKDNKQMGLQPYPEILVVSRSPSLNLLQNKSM
Chain of Activin receptor type-2B (Q13705 whole entry): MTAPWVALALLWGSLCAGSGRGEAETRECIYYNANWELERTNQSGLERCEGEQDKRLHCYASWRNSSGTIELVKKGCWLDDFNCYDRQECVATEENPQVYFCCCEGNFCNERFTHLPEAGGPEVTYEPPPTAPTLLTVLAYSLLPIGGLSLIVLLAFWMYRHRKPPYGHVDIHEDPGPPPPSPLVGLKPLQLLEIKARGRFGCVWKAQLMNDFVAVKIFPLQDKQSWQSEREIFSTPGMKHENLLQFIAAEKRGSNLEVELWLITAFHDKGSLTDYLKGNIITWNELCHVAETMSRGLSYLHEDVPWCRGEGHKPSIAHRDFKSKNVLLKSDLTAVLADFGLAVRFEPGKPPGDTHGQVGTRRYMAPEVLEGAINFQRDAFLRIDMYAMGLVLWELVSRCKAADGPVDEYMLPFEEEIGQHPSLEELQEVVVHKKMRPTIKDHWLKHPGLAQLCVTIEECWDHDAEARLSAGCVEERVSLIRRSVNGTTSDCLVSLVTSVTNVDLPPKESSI
Chain of Serine/threonine-protein kinase N2 (Q16513 whole entry): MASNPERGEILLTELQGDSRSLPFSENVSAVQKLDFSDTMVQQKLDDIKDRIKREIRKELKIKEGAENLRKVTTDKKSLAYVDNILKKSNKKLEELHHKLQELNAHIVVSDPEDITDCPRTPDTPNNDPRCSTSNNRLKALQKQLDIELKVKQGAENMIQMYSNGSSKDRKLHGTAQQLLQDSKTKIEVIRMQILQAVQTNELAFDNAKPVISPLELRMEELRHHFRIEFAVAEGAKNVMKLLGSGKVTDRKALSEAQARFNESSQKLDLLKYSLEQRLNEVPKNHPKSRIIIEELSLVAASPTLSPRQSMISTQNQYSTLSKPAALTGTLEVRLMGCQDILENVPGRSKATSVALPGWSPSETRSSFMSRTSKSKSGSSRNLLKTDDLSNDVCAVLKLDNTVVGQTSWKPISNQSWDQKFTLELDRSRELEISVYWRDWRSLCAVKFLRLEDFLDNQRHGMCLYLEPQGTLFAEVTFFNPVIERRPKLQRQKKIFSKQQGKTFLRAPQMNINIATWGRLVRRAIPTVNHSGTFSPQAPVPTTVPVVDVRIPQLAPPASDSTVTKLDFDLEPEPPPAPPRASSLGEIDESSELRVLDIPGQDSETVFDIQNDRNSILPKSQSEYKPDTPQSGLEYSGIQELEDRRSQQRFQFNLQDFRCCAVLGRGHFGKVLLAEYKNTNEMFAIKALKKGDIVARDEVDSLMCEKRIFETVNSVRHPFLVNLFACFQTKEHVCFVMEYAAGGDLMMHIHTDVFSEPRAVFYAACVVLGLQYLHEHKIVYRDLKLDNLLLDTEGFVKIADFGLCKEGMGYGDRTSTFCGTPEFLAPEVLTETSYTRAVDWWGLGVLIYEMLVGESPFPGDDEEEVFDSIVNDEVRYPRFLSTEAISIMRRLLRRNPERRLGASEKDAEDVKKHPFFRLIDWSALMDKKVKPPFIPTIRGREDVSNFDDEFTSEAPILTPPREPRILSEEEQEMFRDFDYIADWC
Chain of Macrophage-stimulating protein receptor (Q04912 25-304 limits assumed): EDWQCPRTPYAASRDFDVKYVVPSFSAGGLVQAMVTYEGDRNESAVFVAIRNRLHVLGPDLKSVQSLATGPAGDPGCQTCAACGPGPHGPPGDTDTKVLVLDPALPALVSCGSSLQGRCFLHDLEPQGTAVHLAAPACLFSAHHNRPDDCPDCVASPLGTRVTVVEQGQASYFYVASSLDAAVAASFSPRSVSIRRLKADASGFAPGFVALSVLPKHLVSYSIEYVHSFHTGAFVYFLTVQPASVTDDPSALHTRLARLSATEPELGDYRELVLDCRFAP
Chain of Macrophage-stimulating protein receptor (Q04912 310-1400 limits assumed): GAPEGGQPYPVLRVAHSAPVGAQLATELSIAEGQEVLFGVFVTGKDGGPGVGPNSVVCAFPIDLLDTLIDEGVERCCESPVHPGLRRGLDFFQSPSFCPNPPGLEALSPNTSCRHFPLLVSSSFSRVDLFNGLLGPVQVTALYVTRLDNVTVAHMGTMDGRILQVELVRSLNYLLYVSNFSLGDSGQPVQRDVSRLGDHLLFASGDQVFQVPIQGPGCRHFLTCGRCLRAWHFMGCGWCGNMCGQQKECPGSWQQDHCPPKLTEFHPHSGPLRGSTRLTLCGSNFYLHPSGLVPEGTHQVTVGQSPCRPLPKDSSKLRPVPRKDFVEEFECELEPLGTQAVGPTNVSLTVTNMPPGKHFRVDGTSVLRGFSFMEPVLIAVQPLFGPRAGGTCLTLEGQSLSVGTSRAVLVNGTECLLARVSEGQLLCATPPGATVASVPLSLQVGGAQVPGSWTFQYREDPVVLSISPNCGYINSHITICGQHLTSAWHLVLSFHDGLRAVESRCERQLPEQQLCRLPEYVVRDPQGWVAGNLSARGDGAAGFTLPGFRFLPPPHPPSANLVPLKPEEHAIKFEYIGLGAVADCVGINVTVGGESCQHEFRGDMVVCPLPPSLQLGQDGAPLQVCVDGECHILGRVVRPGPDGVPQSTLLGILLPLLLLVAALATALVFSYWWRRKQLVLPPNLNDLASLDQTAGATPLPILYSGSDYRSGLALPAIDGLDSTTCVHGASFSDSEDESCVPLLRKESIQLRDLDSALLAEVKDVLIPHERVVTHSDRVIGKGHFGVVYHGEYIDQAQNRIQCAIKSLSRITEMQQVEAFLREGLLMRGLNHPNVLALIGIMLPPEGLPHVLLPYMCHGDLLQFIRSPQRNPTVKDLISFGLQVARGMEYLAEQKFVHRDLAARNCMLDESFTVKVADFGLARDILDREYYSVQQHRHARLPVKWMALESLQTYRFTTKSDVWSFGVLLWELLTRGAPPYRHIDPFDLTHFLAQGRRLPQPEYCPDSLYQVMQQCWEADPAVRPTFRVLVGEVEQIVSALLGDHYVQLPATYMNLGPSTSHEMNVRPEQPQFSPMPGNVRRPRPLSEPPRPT
Chain of Mitogen-activated protein kinase kinase kinase 4 (Q9Y6R4 whole entry): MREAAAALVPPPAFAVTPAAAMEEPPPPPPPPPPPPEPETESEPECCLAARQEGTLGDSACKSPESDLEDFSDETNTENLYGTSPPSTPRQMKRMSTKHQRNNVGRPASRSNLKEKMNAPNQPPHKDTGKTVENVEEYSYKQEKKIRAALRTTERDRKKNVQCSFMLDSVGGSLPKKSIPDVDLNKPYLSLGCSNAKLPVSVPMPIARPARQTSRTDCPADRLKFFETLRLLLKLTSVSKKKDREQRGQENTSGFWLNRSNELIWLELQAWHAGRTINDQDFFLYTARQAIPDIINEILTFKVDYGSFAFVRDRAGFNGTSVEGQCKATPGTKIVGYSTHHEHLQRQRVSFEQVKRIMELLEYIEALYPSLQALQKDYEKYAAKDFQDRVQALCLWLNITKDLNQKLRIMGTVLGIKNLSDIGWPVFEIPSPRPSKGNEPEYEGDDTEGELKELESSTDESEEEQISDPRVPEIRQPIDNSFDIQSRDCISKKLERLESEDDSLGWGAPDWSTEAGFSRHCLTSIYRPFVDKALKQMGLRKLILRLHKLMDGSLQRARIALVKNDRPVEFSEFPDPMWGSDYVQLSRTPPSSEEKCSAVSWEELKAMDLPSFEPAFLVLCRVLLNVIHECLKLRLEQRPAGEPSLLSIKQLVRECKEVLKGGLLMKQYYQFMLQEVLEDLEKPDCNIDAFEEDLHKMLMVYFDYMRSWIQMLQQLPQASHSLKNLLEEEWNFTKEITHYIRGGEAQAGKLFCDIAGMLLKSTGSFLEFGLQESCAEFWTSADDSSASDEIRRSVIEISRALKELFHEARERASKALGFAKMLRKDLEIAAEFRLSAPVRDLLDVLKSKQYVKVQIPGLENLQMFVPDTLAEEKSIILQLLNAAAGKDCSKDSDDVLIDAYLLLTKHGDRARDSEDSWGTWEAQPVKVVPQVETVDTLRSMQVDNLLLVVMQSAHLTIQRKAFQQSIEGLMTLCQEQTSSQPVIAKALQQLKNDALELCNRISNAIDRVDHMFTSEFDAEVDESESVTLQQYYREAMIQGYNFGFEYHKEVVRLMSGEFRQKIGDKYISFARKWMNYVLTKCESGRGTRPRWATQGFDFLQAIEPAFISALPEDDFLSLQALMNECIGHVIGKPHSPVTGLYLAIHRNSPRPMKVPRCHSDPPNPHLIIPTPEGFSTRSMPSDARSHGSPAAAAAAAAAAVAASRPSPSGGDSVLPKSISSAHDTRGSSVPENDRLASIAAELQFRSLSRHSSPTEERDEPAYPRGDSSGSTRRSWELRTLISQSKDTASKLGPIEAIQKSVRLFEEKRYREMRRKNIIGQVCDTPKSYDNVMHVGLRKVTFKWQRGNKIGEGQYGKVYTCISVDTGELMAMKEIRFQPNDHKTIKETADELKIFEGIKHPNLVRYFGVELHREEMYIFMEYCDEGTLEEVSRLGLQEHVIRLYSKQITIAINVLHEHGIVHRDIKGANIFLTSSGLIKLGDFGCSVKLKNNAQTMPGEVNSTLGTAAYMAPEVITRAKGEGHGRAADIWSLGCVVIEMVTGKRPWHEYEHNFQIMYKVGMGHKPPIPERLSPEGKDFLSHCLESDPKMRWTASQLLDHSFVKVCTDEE

Row | SMILES | Kd [1] | Kd [2] | Kd [3] | Kd [4] | Kd [5] | Kd [6] | Kd [7] | Kd [8] | Kd [9] | Kd [10] | Kd [11] | Kd [12] | Kd [13] | Kd [14]
1 | C=CC(=O)N1CCC[C@H](n2c(=O)n(-c3ccc(Oc4ccccc4)cc3)c3c(N)ncnc32)C1 | 0.019 µM (active) | > 30 µM (inactive) | > 30 µM (inactive) | > 30 µM (inactive) | > 30 µM (inactive) | > 30 µM (inactive) | > 30 µM (inactive) | > 30 µM (inactive) | > 30 µM (inactive) | > 30 µM (inactive) | > 30 µM (inactive) | 0.007 µM | > 30 µM (inactive) | > 30 µM (inactive)
2 | Cc1nc2cc(-c3nn(C(C)C)c4ncnc(N)c34)ccc2o1 | > 30 µM (inactive) | > 30 µM (inactive) | > 30 µM (inactive) | > 30 µM (inactive) | > 30 µM (inactive) | 21.8 µM (active) | > 30 µM (inactive) | 3.01 µM (active) | > 30 µM (inactive) | 0.901 µM (active) | > 30 µM (inactive) | 0.178 µM (active) | > 30 µM (inactive) | > 30 µM (inactive)
3 | C=CC(=O)Nc1cc2c(Nc3ccc(F)c(Cl)c3)ncnc2cc1C#CC(C)(C)N1CCN(C)CC1 [AV-412 FREE BASE] | 0.01 µM (active) | > 30 µM (inactive) | > 30 µM (inactive) | > 30 µM (inactive) | > 30 µM (inactive) | > 30 µM (inactive) | > 30 µM (inactive) | > 30 µM (inactive) | > 30 µM (inactive) | > 30 µM (inactive) | > 30 µM (inactive) | > 30 µM (inactive) | > 30 µM (inactive) | > 30 µM (inactive)
4 | Cn1cnc2c(F)c(Nc3ccc(Br)cc3F)c(C(=O)NOCCO)cc21 [BINIMETINIB] | > 30 µM (inactive) | > 30 µM (inactive) | > 30 µM (inactive) | > 30 µM (inactive) | > 30 µM (inactive) | > 30 µM (inactive) | > 30 µM (inactive) | 0.045 µM (active) | > 30 µM (inactive) | > 30 µM (inactive) | > 30 µM (inactive) | > 30 µM (inactive) | > 30 µM (inactive) | > 30 µM (inactive)
5 | CCn1c(C(=O)N(C2CC2)C2CC2)cc2c3c(ncn3C)c(Nc3cc(C)n(C)n3)nc21 [BMS-911543] | > 30 µM (inactive) | > 30 µM (inactive) | > 30 µM (inactive) | > 30 µM (inactive) | > 30 µM (inactive) | > 30 µM (inactive) | > 30 µM (inactive) | > 30 µM (inactive) | > 30 µM (inactive) | > 30 µM (inactive) | > 30 µM (inactive) | > 30 µM (inactive) | > 30 µM (inactive) | > 30 µM (inactive)
6 | COc1c(OCCCN2CCOCC2)ccc2c1N=C(NC(=O)c1cnc(N)nc1)N1CCN=C21 [COPANLISIB] | > 30 µM (inactive) | > 30 µM (inactive) | > 30 µM (inactive) | > 30 µM (inactive) | > 30 µM (inactive) | > 30 µM (inactive) | > 30 µM (inactive) | > 30 µM (inactive) | > 30 µM (inactive) | > 30 µM (inactive) | > 30 µM (inactive) | > 30 µM (inactive) | > 30 µM (inactive) | > 30 µM (inactive)
7 | COc1ccc(S(=O)(=O)N(C(C)=O)c2ccccc2/C=C/c2cc[n+]([O-])cc2)cc1 [HMN-214] | > 30 µM (inactive) | > 30 µM (inactive) | > 30 µM (inactive) | > 30 µM (inactive) | > 30 µM (inactive) | > 30 µM (inactive) | > 30 µM (inactive) | > 30 µM (inactive) | > 30 µM (inactive) | > 30 µM (inactive) | > 30 µM (inactive) | > 30 µM (inactive) | > 30 µM (inactive) | > 30 µM (inactive)
8 | NC1(c2ccc(-c3nc4ccn5c(=O)[nH]nc5c4cc3-c3ccccc3)cc2)CCC1 [MK-2206] | > 30 µM (inactive) | > 30 µM (inactive) | > 30 µM (inactive) | > 30 µM (inactive) | > 30 µM (inactive) | > 30 µM (inactive) | > 30 µM (inactive) | > 30 µM (inactive) | > 30 µM (inactive) | > 30 µM (inactive) | > 30 µM (inactive) | > 30 µM (inactive) | > 30 µM (inactive) | > 30 µM (inactive)
9 | Cn1cc(-c2cnc3ccc4ccc(CS(=O)(=O)NCc5ccccn5)cc4c(=O)c3c2)cn1 [MK-8033] | > 30 µM (inactive) | > 30 µM (inactive) | > 30 µM (inactive) | > 30 µM (inactive) | > 30 µM (inactive) | > 30 µM (inactive) | > 30 µM (inactive) | > 30 µM (inactive) | > 30 µM (inactive) | > 30 µM (inactive) | > 30 µM (inactive) | > 30 µM (inactive) | 0.956 µM (active) | > 30 µM (inactive)
10 | FC(F)(F)c1ccc(/C=C/c2nc(COc3ccc(CCCCn4ccnn4)cc3)co2)cc1 [MUBRITINIB] | > 30 µM (inactive) | > 30 µM (inactive) | > 30 µM (inactive) | > 30 µM (inactive) | > 30 µM (inactive) | > 30 µM (inactive) | > 30 µM (inactive) | > 30 µM (inactive) | > 30 µM (inactive) | > 30 µM (inactive) | > 30 µM (inactive) | > 30 µM (inactive) | > 30 µM (inactive) | > 30 µM (inactive)
11 | COc1ncc(-c2ccc3nccc(-c4ccnnc4)c3c2)cc1NS(=O)(=O)c1ccc(F)cc1F [OMIPALISIB] | > 30 µM (inactive) | > 30 µM (inactive) | > 30 µM (inactive) | > 30 µM (inactive) | > 30 µM (inactive) | > 30 µM (inactive) | > 30 µM (inactive) | > 30 µM (inactive) | > 30 µM (inactive) | > 30 µM (inactive) | > 30 µM (inactive) | > 30 µM (inactive) | > 30 µM (inactive) | > 30 µM (inactive)
12 | Cc1cnc(NC(=O)Nc2cc(Br)c(C)cc2OC[C@@H]2CNCCO2)cn1 [RABUSERTIB] | > 30 µM (inactive) | > 30 µM (inactive) | > 30 µM (inactive) | > 30 µM (inactive) | > 30 µM (inactive) | > 30 µM (inactive) | > 30 µM (inactive) | > 30 µM (inactive) | > 30 µM (inactive) | > 30 µM (inactive) | > 30 µM (inactive) | > 30 µM (inactive) | > 30 µM (inactive) | > 30 µM (inactive)
